From patent US9850227B2 (YUHAN CORPORATION, priority 2011, dated 2017)

Molecular target: T1, human 5-HT4(a) (Homo sapiens, UniProt Q13639)
T1 construct: host or cells: GeneBIAzer HTR4-CRE-bla CHO-K1 cells
Assay: Evaluation of agonistic activity in CHO-K1 cells expressing human 5-HT4(a) (GeneBIAzer HTR4-CRE-bla CHO-K1 cells, beta-lactamase fluorescence ratio, EC50 from 8 concentrations)
Assay type: cell-based
Procedure, shortened: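 HTR4-CRE-bla CHO-K1 cells (10^4 per well, overnight in 1% FBS medium) exposed to compound for 5 h, then beta-lactamase substrate 2 h in the dark. Fluorescence ratio at 465/535 nm after 410 nm excitation; EC50 by non-linear regression over 8 concentrations.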

T1 sequence (Q13639 1-387 isoform Q13639-2): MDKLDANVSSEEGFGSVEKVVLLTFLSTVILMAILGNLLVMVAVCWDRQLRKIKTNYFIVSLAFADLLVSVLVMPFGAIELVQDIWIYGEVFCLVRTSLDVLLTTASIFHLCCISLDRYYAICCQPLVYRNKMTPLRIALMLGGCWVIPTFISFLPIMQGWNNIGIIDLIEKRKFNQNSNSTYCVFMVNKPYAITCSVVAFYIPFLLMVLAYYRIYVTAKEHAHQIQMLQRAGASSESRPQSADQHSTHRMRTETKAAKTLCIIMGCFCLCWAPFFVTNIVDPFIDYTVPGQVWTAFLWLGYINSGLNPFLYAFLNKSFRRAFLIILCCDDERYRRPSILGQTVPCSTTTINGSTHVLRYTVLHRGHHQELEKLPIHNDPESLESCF

Compound | EC50
CCCCc1cc(N2CCC[C@@H](NC(C)=O)C2)nc(Nc2ccc(F)c([N+](=O)[O-])c2)n1 [Example 234, (R)—N-{1-[6-butyl-2-(4-fluoro-3-nitrophenylamino)pyrimidin-4-yl]piperidin-3-yl}acetamide] | 0.015 nM
CCCCc1cc(N2CCC[C@@H](NC(C)=O)C2)nc(Nc2ccc(Cl)c([N+](=O)[O-])c2)n1 [Example 235, (R)—N-{1-[6-butyl-2-(4-chloro-3-nitrophenylamino)pyrimidin-4-yl]piperidin-3-yl}acetamide] | 0.012 nM
CCCCc1cc(N2CCC[C@@H](NC(C)=O)C2)nc(Nc2cc(N)cc(C#N)c2)n1 [Example 236, (R)—N-{1-[2-(3-amino-5-cyanophenylamino)-6-butylpyrimidin-4-yl]piperidin-3-yl}acetamide] | 0.0088 nM
CCCCc1cc(N2CCC[C@@H](NC(C)=O)C2)nc(Nc2cc(N)cc(C(F)(F)F)c2)n1 [Example 237, (R)—N-{1-[2-(3-amino-5-trifluoromethylphenylamino)-6-butylpyrimidin-4-yl]piperidin-3-yl}acetamide] | 0.014 nM
CCCCc1cc(N2CCC[C@@H](NC(C)=O)C2)nc(Nc2ccc(N)c(C(F)(F)F)c2)n1 [Example 238, (R)—N-{1-[2-(4-amino-3-trifluoromethylphenylamino)-6-butylpyrimidin-4-yl]piperidin-3-yl}acetamide] | 0.0083 nM
CCCCc1cc(N2CCC[C@@H](NC(C)=O)C2)nc(Nc2ccc(F)c(C(F)(F)F)c2)n1 [Example 239, (R)—N-{1-[6-butyl-2-(4-fluoro-3-trifluoromethylphenylamino)pyrimidin-4-yl]piperidin-3-yl}acetamide] | 0.017 nM
CCCCc1cc(N2CCC[C@@H](NC(C)=O)C2)nc(Nc2ccc(F)c(C#N)c2)n1 [Example 240, (R)—N-{1-[6-butyl-2-(3-cyano-4-fluorophenylamino)pyrimidin-4-yl]piperidin-3-yl}acetamide] | 0.012 nM
CCCCc1cc(N2CCC[C@@H](NC(C)=O)C2)nc(Nc2ccc(F)c(N)c2)n1 [Example 241, (R)—N-{1-[2-(3-amino-4-fluorophenylamino)-6-butylpyrimidin-4-yl]piperidin-3-yl}acetamide] | 0.014 nM
CCCCc1cc(N2CCC[C@@H](NC(C)=O)C2)nc(Nc2ccc(Cl)c(N)c2)n1 [Example 242, (R)—N-{1-[2-(3-amino-4-chlorophenylamino)-6-butylpyrimidin-4-yl]piperidin-3-yl}acetamide] | 0.0091 nM
CCCCc1cc(N2CCC[C@@H](NC(C)=O)C2)nc(Nc2ccc(N)c(C#N)c2)n1 [Example 243, (R)—N-{1-[2-(4-amino-3-cyanophenylamino)-6-butylpyrimidin-4-yl]piperidin-3-yl}acetamide] | 0.0094 nM
CCCc1cc(N2CCC[C@@H](NC(=O)CO)C2)nc(Nc2ccc(C)c(C#N)c2)n1 [Example 244, (R)—N-{1-[2-(3-cyano-4-methylphenylamino)-6-propylpyrimidin-4-yl]piperidin-3-yl}-2-hydroxyacetamide] | 0.02 nM
CCCc1cc(N2CCC[C@@H](NC(=O)CO)C2)nc(Nc2cccc(C#N)c2)n1 [Example 245, (R)—N-{1-[2-(3-cyanophenylamino)-6-propylpyrimidin-4-yl]piperidin-3-yl}-2-hydroxyacetamide] | 0.047 nM
CCCc1cc(N2CCC[C@@H](NC(=O)CO)C2)nc(Nc2ccc(F)c(C#N)c2)n1 [Example 246, (R)—N-{1-[2-(3-cyano-4-fluorophenylamino)-6-propylpyrimidin-4-yl]piperidin-3-yl}-2-hydroxyacetamide] | 0.06 nM
CCCc1cc(N2CCC[C@@H](NC(=O)CO)C2)nc(Nc2cc(N)cc(C(F)(F)F)c2)n1 [Example 247, (R)—N-(1-{2-[3-amino-5-(trifluoromethyl)phenylamino]-6-propylpyrimidin-4-yl}piperidin-3-yl)-2-hydroxyacetamide] | 0.023 nM
CCCc1cc(N2CCC[C@@H](NC(=O)CO)C2)nc(Nc2ccc(N)c(C(F)(F)F)c2)n1 [Example 248, (R)—N-(1-{2-[4-amino-3-(trifluoromethyl)phenylamino]-6-propylpyrimidin-4-yl}piperidin-3-yl)-2-hydroxyacetamide] | 0.018 nM
CCCc1cc(N2CCC[C@@H](NC(=O)CO)C2)nc(Nc2ccc(F)c(C(F)(F)F)c2)n1 [Example 249, (R)—N-(1-{2-[4-fluoro-3-(trifluoromethyl)phenylamino]-6-propylpyrimidin-4-yl}piperidin-3-yl)-2-hydroxyacetamide] | 0.025 nM
CCCc1cc(N2CCC[C@@H](NC(=O)CO)C2)nc(Nc2ccc(F)c(N)c2)n1 [Example 250, (R)—N-{1-[2-(3-amino-4-fluorophenylamino)-6-propylpyrimidin-4-yl]piperidin-3-yl}-2-hydroxyacetamide] | 0.027 nM
CCCc1cc(N2CCC[C@@H](NC(=O)CO)C2)nc(Nc2ccc(Cl)c(N)c2)n1 [Example 251, (R)—N-{1-[2-(3-amino-4-chlorophenylamino)-6-propylpyrimidin-4-yl]piperidin-3-yl}-2-hydroxyacetamide] | 0.016 nM
CCCc1cc(N2CCC[C@@H](NC(=O)CO)C2)nc(Nc2ccc(C)c(N)c2)n1 [Example 252, (R)—N-{1-[2-(3-amino-4-methylphenylamino)-6-propylpyrimidin-4-yl]piperidin-3-yl}-2-hydroxyacetamide] | 0.094 nM
CCCc1cc(N2CCC[C@@H](NC(=O)CO)C2)nc(Nc2ccc(C)c(Cl)c2)n1 [Example 253, (R)—N-{1-[2-(3-chloro-4-methylphenylamino)-6-propylpyrimidin-4-yl]piperidin-3-yl}-2-hydroxyacetamide] | 0.057 nM
CCCc1cc(N2CCC[C@@H](NC(=O)CO)C2)nc(Nc2ccc(C)c(C(F)(F)F)c2)n1 [Example 254, (R)-2-hydroxy-N-(1-{2-[4-methyl-3-(trifluoromethyl)phenylamino]-6-propylpyrimidin-4-yl}piperidin-3-yl)acetamide] | 0.038 nM
CCCc1cc(N2CCC[C@@H](NC(=O)CO)C2)nc(Nc2cc(N)cc(C#N)c2)n1 [Example 255, (R)—N-{1-[2-(3-amino-5-cyanophenylamino)-6-propylpyrimidin-4-yl]piperidin-3-yl}-2-hydroxyacetamide] | 0.016 nM
CCCc1cc(N2CCC[C@@H](N)C2)nc(Nc2cc(N)cc(C(F)(F)F)c2)n1 [Example 256, (R)—N^1-[4-(3-aminopiperidin-1-yl)-6-propylpyrimidin-2-yl]-5-(trifluoromethyl)benzene-1,3-diamine] | 0.012 nM
CCCc1cc(N2CCC[C@@H](N)C2)nc(Nc2ccc(N)c(C(F)(F)F)c2)n1 [Example 257, (R)—N^1-[4-(3-aminopiperidin-1-yl)-6-propylpyrimidin-2-yl]-3-(trifluoromethyl)benzene-1,4-diamine] | 0.042 nM
CCCc1cc(N2CCC[C@@H](N)C2)nc(Nc2ccc(F)c(N)c2)n1 [Example 259, (R)—N^1-[4-(3-aminopiperidin-1-yl)-6-propylpyrimidin-2-yl]-4-fluorobenzene-1,3-diamine] | 0.084 nM
CCCc1cc(N2CCC[C@@H](N)C2)nc(Nc2cc(N)cc(C#N)c2)n1 [Example 260, (R)-3-amino-5-{[4-(3-aminopiperidin-1-yl)-6-propylpyrimidin-2-yl]amino}benzonitrile] | 0.0075 nM
